Tests used:
Format in all cases: cell-based, human
[1] = system: PCS-200-013 normal cells; test: WST-1 assay for cell viability and cytotoxicity; settings: treated at IC50, 3 days
Method: (§1) Approximately 4×10^3 cells (PCS-200-013, SK-MEL-2 and MeWo) were cultured in a 96 well plate. […] This IC50 was obtained based on the cell viability counts in the previous experiments. Additional doses of sterile water or inhibitor were supplied every 24 h during 3 day incubation period. At the end of 3 day treatment, media were removed and fresh media (100 μL) were added with 4-[3-(4-iodophenyl)-2-(4-nitropheny))-2H-5-tetrazolio]-1,3-benzene disulfonate (WST-1) reagent (10 μL) to each well. The absorbance was measured at 450 nm for every 0.5 hour up to 3 hours using the Synergy HT microplate reader from Biotek (Winooski, Vt.).
(§2) WST-1 assay was performed to determine the in-vitro cytotoxicity of ACPD and DNDA on normal and malignant cell lines. Measured absorbance at 450 nm is directly proportional to the number of cells present. Cells produce a water soluble formazan with WST-1 as a result of their mitochondrial dehydrogenase activity. WST-1 assay is preferred over 3-(4,S-Dimethyl-2-thiazolyl)-2, 5-diphenyl-2Htetrazolium bromide (MTT) test since MTT needs to add acidic isopropanol to dissolve formazan which gives an additional toxicity to cells.

[2] = system: SK-MEL-2 cells; test: WST-1 assay for cell viability and cytotoxicity; settings: treated at IC50, 3 days
Method: as §1, §2

[3] = system: SK-MEL-2 cells; test: Wound healing assay; settings: for scratch coverage in wound healing assay: two days; for wound closure: 2.5 μM, day 3 or 4, p≤0.01
Method: For the wound-healing assay, melanoma cells were seeded into 35 mm dishes in 6-well-plates. After the cells had reached 100% confluency, the wound-healing assay was performed with a sterile pipette tip (1-10 μL pipette tip) by making a scratch through the confluent monolayer. Subsequently, the cells were washed with DPBS and fresh medium (EMEM) was added to each well and the desired amount of inhibitor was added in order to achieve the final concentrations of 50 nM, 100 nM, 200 nM, 500 nM and 1 μM against the control. Cells were cultured for 48 h. In 24 hours intervals, pictures of wound closure were taken and the percentage of wound closure was calculated in three randomly chosen fields.
The scratch was even clearer after two days in 1 μM sample compared to 200 nM sample. Also the number of dead cells floating was highest in 1 μM, followed by 200 nM; whereas, floating cells were rarely observed in the control samples.
A wound healing assay was performed to investigate the effect of ACPD and DNDA on malignant melanoma cell migration in vitro. Wound healing assay is commonly used to investigate in vitro migration of cancer cells. For the wound-healing assay, melanoma cells were seeded into 35 mm dishes in 6-well-plates. After the cells had reached 100% confluency, the wound-healing assay was performed with a sterile pipette tip (1-10 μL pipette tip) by making a scratch through the confluent monolayer. Subsequently, the cells were washed with DPBS and fresh medium (EMEM) was added to each well and the desired amount of inhibitor was added. Each well was subsequently incubated with sterile water or desired amount of ICA-1, ACPD, DNDA, or c-Stat to achieve the final concentration of the half maximal inhibitory concentration (IC50) for each inhibitor. Plates were incubated at 37 ° C. and 5% CO2 and photographs of wound closure were taken utilizing a Motic AE31E microscope (40× magnification). The percentage of wound closure was calculated after 3 or 4 days.
In one set of experiments, cells were cultured for 48 h. In 24 hours intervals, pictures of wound closure were taken and the percentage of wound closure was calculated in three randomly chosen fields. […] In each figure, cells treated with ACPD 2.5 μM and DNDA 2.5 μM were compared with their respective controls. The areas of the scratch (wound) were calculated and compared to determine the statistical significance (FIG. 8C).

[4] = system: SK-MEL-2 cells; test: Western blot of protein levels; set-up: reduction of PKC-ι level / reduction of pPKC-ι level / reduction of PKC-ζ level / reduction of pPKC-ζ level: concentration or dose not given beside the values; settings: for reduction of PKC-ζ level / reduction of PKC-ι level / reduction of pPKC-ζ level / reduction of pPKC-ι level: vs respective control
Method: Approximately 2×10^5 cells from PCS-200-013 and SK-MEL-2 cell lines were plated in T25 flasks until they become 70% confluent. Confluent cells were semi-synchronized by contact inhibition and serum starvation for 48 hrs. Subsequently, cells were incubated with serum and atypical inhibitors. The cells were removed at specific times and were placed in ice to terminate the incubation. Cells were washed at least two times with ice cold DPBS. Cells were then scrapped, re-suspended and sonicated in 500 μL of homogenization buffer (50 mM HEPES—pH 7.5), 150 mM NaCl, 0.1% Triton X, 1 mM EDTA (ethylenediaminetetraacetic acid), 2 mM EGTA [glycol-bis (2-aminoethylether)-N, N, N′,N′-tetraacetic acid], 0.1 mM orthovanadate, 1 mM NaF, 2 mM PMSF (phenylmethylsulphonylfluoride), 1 mM DTT (dithiothreitol) and 0.15 U/mL aprotinin. Cell suspensions was then sonicated and centrifuged at 100,000 g for 30 minutes. The protein concentrations was determined using Bradford method. Subsequently, approximately 800 μg of proteins were immunoprecipitated with the antibody against desired protein. In some cases cell lysates were suspended with anti-HFS-1 antibody, rocking overnight at 4° C. Agarose beds were added after 24 hrs. Then the complex of cell lysate-anti HSF-1 antibody-agarose beads was rocked at 4° C. for 2 hrs. After washing the beads, approximately […] the sample loading buffer was added to dissolve all the protein on the beads. Proteins were then separated on sodium dodecyl sulfate polyacrylamide gel electrophoresis (SDS-PAGE) and transblotted followed by immunoblotting with anti-PKC-ζ or anti-PKC-ι or anti-HSF-1 antibody or phosphospecific antibodies. Immunoreactive bands were visualized with enhanced chemiluminescence. […]
Western blots (WB) were performed to investigate the effect of ACPD and DNDA on the expression of aPKCs on malignant melanoma. […] DNDA decreased the levels of PKC-ι by 52%, pPKC-ι by 33% in SK-MEL-2 cells and by 27% of PKC-ι and pPKC-ι by 20% in MeWo cells.
DNDA reduced the levels of PKC-ζ by 33%, pPKC-ζ by only 17% in SK-MEL-2 cells and by 60% of PKC-ζ and pPKC-ζ by 29% in MeWo cells. All values (percent) were calculated compared to their respective control in Western blot. B-actin was used as the internal control to ensure that equal amounts of proteins were loaded in each lane in SDS-PAGE.

[5] = upon increasing concentration, vs control

Compound	WST-1 absorbance at 450 nm, effect on normal cells [1]	WST-1 absorbance at 450 nm, effect [2]	wound closure [3]	decrease of Bcl-2 levels [4] [%]	decrease of CD44 [4] [%]	decrease of Vimentin levels [4] [%]	decrease of β-catenin [4] [%]	increase of Caspase-3 levels [4] [%]	increase of E-cadherin levels [4] [%]	increase of NF-KB p65 levels [4] [%]	increase of cleaved PARP levels [4] [%]	reduction of PKC-ζ level [4] [%]	reduction of PKC-ι level [4] [%]	reduction of pPKC-ζ level [4] [%]	reduction of pPKC-ι level [4] [%]	further results
CC(=O)C1=C(O)CCC1=O [ACPD, 2-acetyl-1,3-cyclopentanedione]	did not show a significant effect	did not show a significant effect	significantly reduce the wound closure	13	19	51	39	26	18	31	14	42	43	29	31	scratch coverage in wound healing assay ([3]; 200 nM): not completely covered; scratch coverage in wound healing assay ([3]; 1 μM): not completely covered; decrease of PARP levels [4]: 33%; PKC-ζ level [4, 5]: decreased; PKC-ι level [4, 5]: good decrease
Nc1c(S(=O)(=O)O)cc2cc(S(=O)(=O)O)ccc2c1N [DNDA, 3,4-diamino-2,7-naphthalenedisulfonic acid]	did not show a significant effect	significant decrease in absorption	significantly reduce the wound closure	7	27	49	13	32	28	49	16	33	52	17	33	increase of PARP levels [4]: 12%

Reference: US11065266B2, “Method of treating melanoma using an inhibitor of an atypical protein kinase C” (UNIVERSITY OF SOUTH FLORIDA, priority 2016, dated 2021)
